Test results as given in US12648945B2, “Compositions and methods for treating systemic lupus erythematosus” (ASCENTAGE PHARMA (SUZHOU) CO., LTD., priority 2020, dated 2026).

Tests used:
[1] = system: MRL/lpr mice; experiment: Urine protein (Coomassie Brilliant Blue assay) in MRL/lpr mouse model of SLE; type: in vivo; settings: week 18
Description: (§1) Female MRL/MpJ-Fas lpr/J mice (18-20 g, 7-8 weeks old) were obtained from The Jackson Laboratory. These mice are homozygous for the lymphoproliferation spontaneous mutation (Fas^lpr), and show systemic autoimmunity, massive lymphadenopathy associated with proliferation of aberrant T cells, arthritis, and immune complex glomerulonephrosis. Thus, these mice are useful as a model in the study of systemic lupus erythematosus (SLE).
(§2) Animals were housed and handled in a temperature-controlled environment with a 12-h light/12-h dark cycle. […] The protocols and procedures involving the care and use of animals were approved by the Institutional Animal Care and Use Committee (IACUC) of WuXiAppTec (Shanghai) Co., Ltd. (Shanghai, China).
Urine protein was individually evaluated in each mouse on a biweekly basis using Coomassie Brilliant Blue (CBB) assay with a urine protein test kit (Nanjing Jiancheng Biotechnology Institute, Jiangsu, China).

[2] = system: MRL/lpr mice; experiment: Serum anti-dsDNA autoantibody ELISA in MRL/lpr mouse model of SLE; type: in vivo; settings: end of study
Description: as §1, §2
Anti-dsDNA autoantibody levels were measured by ELISA. Briefly, a 96-well flat plate was coated with 10 μg/mL calf thymus ds-DNA (Sigma-Aldrich, MA, USA) at 4° C. overnight. After washing with PBS containing 0.05% Tween 20 (PBS-T) and blocking with 1% bovine serum albumin, serum samples (4000× dilution) were added and incubated for 1 h at room temperature. […] Lastly, ultra TMB-ELISA substrate solution (Pierce Biotechnology, IL, USA) was added and incubated for another 30 min, and the OD values at […] were recorded after the reaction was stopped.

[3] = system: MRL/lpr mice; experiment: Skin lesion score in MRL/lpr mouse model of SLE; type: in vivo; settings: week 18, p<0.0001 vs vehicle
Description: as §1, §2
Skin lesions were scored every week starting from week 12 and were expressed using a scoring system from 0 to 4 (0—normal; 1—small lesion with diameter between 2 to 4 mm; 2—lesion area
<0.5 cm^2; 3—lesion area between 0.5 cm^2 to 1 cm^2; 4—lesion area >1 cm^2).

[4] = system: MRL/lpr mice; experiment: Lymph node (lymphadenopathy) score in MRL/lpr mouse model of SLE; type: in vivo; settings: week 18, p<0.0001 vs vehicle
Description: as §1, §2
Lymph nodes were scored weekly throughout the study, and were expressed using a scoring system from 0 to 6 based on the diameter of lymph nodes (0—normal; 1—<1 cm in one site; 2—<1 cm in two sites; 3—<1 cm in three sites; 4—>1 cm in one site and <1 cm in two sites); 5—>1 cm in two sites and <1 cm in one site; 6—>1 cm in three sites).

[5] = system: MRL/lpr mice; experiment: Kidney histopathological scores of lupus nephritis in MRL/lpr mouse model of SLE; type: in vivo; settings: week 18
Description: as §1, §2
At the end of the study, the spleen and lymph nodes were collected and weighed. […] The histopathological score was evaluated microscopically in a blinded manner, vide infra.
The histopathological score was evaluated microscopically in a blinded manner. The […] glomerulonephritis score (GN score) was evaluated using scoring from 0 to 4 (0—normal; 1—mild, focal or early proliferation; 2—moderate or definite proliferation and increased matrix; 3—diffuse and focal or diffuse proliferation; 4—severe diffuse proliferation with crescent/sclerosis). […]

[6] = system: MRL/lpr mice; experiment: Flow cytometry lymphocyte counts in PBMC, spleen and kidney of MRL/lpr mice; type: in vivo, mouse; settings: 100 mg/kg po qd
Description: as §1, §2
The spleens and kidneys were harvested from the mice at the conclusion of the study (week 18) and digested into single-cell suspensions. Peripheral blood mononuclear cell (PBMC) were obtained after lysing red blood cells in the whole blood. Cells were stained with the following florescence-labelled antibodies: PerCP-Cyanine5.5-conjugated anti-mouse CD8a (BD Biosciences), AF700-conjugated anti-mouse CD3 (BD Biosciences), PE-eFluor610-conjugated anti-mouse B220 (BD Biosciences), e506-conjugated anti-mouse CD45 (BD Biosciences), BV605-conjugated anti-mouse CD138 (BioLegend), and BV711-conjugated anti-mouse CD4 (BioLegend).
All cells were primarily gated on live lymphocytes based on forward scatter (FCS) and side scatter (SSC). Samples were analyzed on a flow cytometer (BD FACSCalibur, USA) to count the number of each subtype of lymphocytes.
Of note, the reduction of double negative T cells were most significant compared to other lymphocytes. […] Without being bound by theory, the reduced infiltration by pro-inflammatory CD4+ cells and double-negative T cells may be responsible in part for the observed efficacy in treating lupus nephritis.

[7] = molecular target: Mcl-1 (Homo sapiens, UniProt Q07820); experiment: FP saturation binding of fluorescent probe to Mcl-1; settings: 2 nM probe
Description: Bcl-XL, and Mcl-1, respectively.

[8] = 30 mg/kg po qd, p<0.05 vs vehicle
[9] = 100 mg/kg po qd, p<0.0001 vs vehicle

Sequence of Mcl-1 (Q07820 whole entry): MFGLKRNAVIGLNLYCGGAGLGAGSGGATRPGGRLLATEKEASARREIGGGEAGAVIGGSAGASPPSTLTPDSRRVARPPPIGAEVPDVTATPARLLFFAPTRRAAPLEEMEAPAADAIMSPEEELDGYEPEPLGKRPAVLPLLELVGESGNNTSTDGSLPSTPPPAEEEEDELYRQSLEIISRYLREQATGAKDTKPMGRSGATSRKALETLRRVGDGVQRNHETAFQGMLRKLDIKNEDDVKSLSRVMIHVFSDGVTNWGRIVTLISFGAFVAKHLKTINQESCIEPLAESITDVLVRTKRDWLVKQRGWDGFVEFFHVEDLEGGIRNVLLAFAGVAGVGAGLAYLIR

What does the source list for `O=C(NS(=O)(=O)c1ccc(NC[C@H]2COCCO2)c([N+](=O)[O-])c1)c1ccc(N2CCN(CC3=C(c4ccc(Cl)cc4)CC4(CCC4)CC3)CC2)cc1Oc1cnc2[nH]ccc2c1` [Compound 1, (S)-N-((4-(((1,4-dioxan-2-yl)methyl)amino)-3-nitrophenyl)sulfonyl)-2-((1H-pyrrolo[2,3-b]pyridin-5-yl)oxy)-4-(4-((6-(4-chlorophenyl)spiro[3.5]non-6-en-7-yl)methyl)piperazin-1-yl)benzamide]?
urine protein level [1, 8]: 536.1 ± 146.8 mg/L; urine protein level [1, 9]: 266.8 ± 37.7 mg/L; serum anti-dsDNA autoantibody level, % of the vehicle group [2, 8]: 76.8%; serum anti-dsDNA autoantibody level, % of the vehicle group [2, 9]: 56.4%; skin lesion score ([3]; 30 mg/kg po qd): significantly reduced; skin lesion score ([3]; 100 mg/kg po qd): significantly reduced; lymphadenopathy score (0 to 6) ([4]; 30 mg/kg po qd): 2.7±0.4; lymphadenopathy score (0 to 6) ([4]; 100 mg/kg po qd): 1.6±0.4; individual and total lupus nephritis pathological scores, significance ([5]; 100 mg/kg po qd): Statistical significance was achieved; pathological score (glomerulonephritis, interstitial nephritis, vasculitis) ([5]; 30 and 100 mg/kg po qd): dose-dependently reduced; number of lymphocytes in PBMC (total, T, CD4+ T, CD8+ T, double-negative T, B, activated B, plasmablasts, plasma cells, CD138+ cells) ([6]; week 18, PBMC (FIG. 6)): significantly reduced; number of pro-inflammatory CD4+ T cells and double-negative T cells in the kidney ([6]; week 18, kidney (FIG. 8)): significantly reduced; number of lymphocytes in spleen (total, T, CD4+ T, CD8+ T, double-negative T, B, activated B, plasmablasts, plasma cells, CD138+ cells) ([6]; week 18, spleen (FIG. 7)): significantly reduced

Which Kd [7] does the source give for “Flu-BID: Fluorescein labeled BID (79-99) peptide, fluorescent probe in FP assay for Mcl-1” here?
The Kd was 6.9 ± 0.9 nM.
